# Patent publication US9364494B2, “Somatostatin 2 receptor (sst2), deoxycytidine kinase (dck) and uridine monophosphate kinase (umk) pancreatic gene therapy” (Institut National de la Sante et de la Recherche Medicale …, priority 2007, dated 2016)
# Experiments:
# [1] = system: PC1.0 cells; design: species or system Syrian golden hamsters; details: hamster, in vivo, ip, 120 mg/kg/day
# [2] = system: PC1.0 cells; assay type: in vivo; details: day 15 post-cell implantation; 25 to 50 μg expression vector intra-tumoral; gemcitabine i.p. 80 to 120 mg/kg/day every three days
smiles,measurement,setting,value
"Cl.Nc1ccn([C@@H]2O[C@H](CO)[C@@H](O)C2(F)F)c(=O)n1 [Gemcitabine, No DNA, 2′-deoxy-2′,2′-difluorocytidine monohydrochloride]",tumor evolution on day 15,[1],only slow down the tumor progression
same,Tumor progression (percentage),[2],+150 to 378 percentage
